ChEMBL document CHEMBL4400553, “Semisynthesis of epoxy-pimarane diterpenoids from kirenol and their FXa inhibition activities” (Bioorg Med Chem, 2019)

The compounds below were run against Coagulation factor X (Homo sapiens, UniProt P00742) (assay: Inhibition of human factor Xa using Z-D-Arg-Gly-Arg-pNA.2HCl as substrate preincubated for 15 mins followed by substrate addition by UV absorption analysis).
Coagulation factor X, sequence (P00742 41-179 limits assumed): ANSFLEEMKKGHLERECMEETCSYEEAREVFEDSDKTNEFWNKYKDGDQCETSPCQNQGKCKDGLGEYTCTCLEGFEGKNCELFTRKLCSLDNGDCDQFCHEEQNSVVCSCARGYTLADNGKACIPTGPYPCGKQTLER
Coagulation factor X, sequence (P00742 235-488 limits assumed): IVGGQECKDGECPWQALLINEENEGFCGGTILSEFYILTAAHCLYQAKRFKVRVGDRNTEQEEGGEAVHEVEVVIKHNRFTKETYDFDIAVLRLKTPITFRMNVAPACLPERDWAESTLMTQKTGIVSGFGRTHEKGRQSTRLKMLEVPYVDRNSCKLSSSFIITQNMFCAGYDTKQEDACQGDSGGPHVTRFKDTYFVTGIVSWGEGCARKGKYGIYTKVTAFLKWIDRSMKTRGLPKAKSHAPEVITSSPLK

Row | Structure (SMILES) | IC50 [µM]
1 | C[C@@]1(CO)C[C@@H](O)C[C@]2(C)[C@@H]1CC[C@@]13O[C@H](CO)[C@@](C)(CC[C@@H]21)[C@H]3Br | 7.9
2 | C[C@]12CC[C@@H]3[C@](CC[C@@H]4[C@](C)(CO)C[C@@H](O)C[C@]43C)(C1)OC2 | 7.4
3 | C[C@@]1(CO)C[C@@H](O)C[C@@]2(C)[C@@H]3CC[C@@]4(C)[C@H](OC[C@@H]4O)C3=CC[C@H]12 | 17.8
4 | C[C@@]1(CO)C[C@@H](O)C[C@@]2(C)C3=C(CC[C@H]12)[C@H]1OC[C@H](O)[C@@]1(C)CC3 | 27.9
5 | CC1(C)OC[C@@H]([C@@]2(C)CC[C@@H]3C4(CC[C@@H]5[C@](C)(CO)C[C@@H](O)C[C@@]35C)OC42)O1 (some centres not stated) | 18.5

Results, then the compound that gave them:

Row | IC50 [µM] | Structure (SMILES)
6 | 0.22 | C[C@@]1(CO)C[C@@H](O)C[C@@]2(C)[C@@H]3CC[C@](C)(C(=O)O)C=C3CC[C@H]12
7 | 1.7 | C[C@]12CC[C@@H]3[C@](CC[C@@H]4[C@](C)(CO)C[C@@H](O)C[C@]43C)(C1)OC2=O
8 | 7.2 | CC1(C)OC[C@@H]([C@]2(C)C=C3CC[C@@H]4[C@](C)(CO)C[C@@H](O)C[C@@]4(C)[C@@H]3CC2)O1
9 | 0.96 | C[C@@]1(CO)C=C2CC[C@@H]3[C@](C)(CO)C[C@@H](O)C[C@@]3(C)[C@@H]2CC1
10 | 4.7 | C[C@@]1(CO)C[C@@H](O)C[C@]2(C)[C@@H]1CC[C@@]13O[C@@H](CO)[C@@](C)(CC[C@@H]21)[C@H]3Br
11 | 2.5 | C[C@@]1(CO)C[C@@H](O)C[C@@]2(C)[C@@H]3CC[C@](C)([C@@H](O)CO)C=C3CC[C@H]12 [KIRENOL]
12 | 6.1 | C[C@]12CC[C@@H]3[C@](CC[C@@H]4[C@](C)(CO)C[C@@H](O)C[C@]43C)(C1)O[C@H]2CO
